Reference: US11478451B1, “Macrocyclic chlorine substituted indole derivatives” (Bayer Aktiengesellschaft, priority 2017, dated 2022)
Counter-ions that a name gives are not always drawn. Like-named read-outs stand apart in the source and are kept apart here.

What was measured:
SUDHL10 cells [1] = assay: Induction of caspase-3/7 activity (Caspase-Glo 3/7), SUDHL10; format: cell-based; conditions: EC50, median, SUDHL10, 3 h treatment
Procedure, shortened: (§1)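 DLBCL lines treated with compounds for 3 h at 37 °C in a humidified incubator; caspase-3/7 activity read with Caspase-Glo 3/7 luminescent reagent. Medium-only background subtracted from all values.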

AMO-1 cells = assay: Antiproliferation assay (CellTiter-Glo, 72 h), AMO-1; format: cell-based; conditions: IC50, median, AMO-1, 72 h, read-out: Antiproli AMO-1 [M] median
Procedure, shortened: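 Cells were incubated with compounds for 72 h at 37°C. Viability was then read by CellTiter-Glo luminescence, and a parallel day 0 plate read the same way gave the time-zero signal.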

HMC-1-8 cells = assay: Antiproliferation assay (CellTiter-Glo, 72 h), HMC-1-8; format: cell-based; conditions: IC50, median, HMC-1-8, 72 h, read-out: Antiproli HMC-1-8 [M] median
Method: Assessment of the Anti-Proliferative Effect of Compounds in Different Cell Lines
The impact of compounds on the proliferation of different cell lines was assessed using the CellTiter-Glo® Luminescent Cell Viability reagent from Promega (G7573).
In parallel, cells were plated in a reference (day 0) plate for time zero determination.
Rim wells were excluded. The cells were incubated for 72 h hours in a humidified incubator at 37° C. The day 0 plate was measured by adding 30 μL/well of CTG solution (CellTiter-Glo® Luminescent Cell Viability reagent, Promega G7573) to time zero wells in the reference plate followed by a 10 minutes incubation and luminescence reading at 0.1 ms. using the PHERAstar FS microplate reader (BMG Labtech).
After 72 h incubation, the treated plates were measured in the same way as the day 0 plate mentioned above.

SUDHL10 cells [2] = assay: Induction of cytotoxicity (CellTiter-Glo, 5 h), SUDHL10; conditions: SUDHL10, 5 h
Method: Therefore, cytotoxicity assays were run in parallel in SUDHL5 and SUDHL10 cells.
The different cell lines were plated in culture medium (RPMI 1640 [GIBCO #22400-089] supplemented with 10% Fetal Bovine Serum) at a density of 3,300 cells in 30 μL/well in a sterile, solid black, flat bottom, polystyrene, TC-treated 384-well microplate (Corning #3571) using Multidrop Combi Reagent Dispenser. As a control, medium without cells was also added to the plate. Cells were incubated in a humidified incubator at 37° C. overnight. […] Rim wells were excluded. The cells were incubated for 5 h hours in a humidified incubator at 37° C. After this incubation, 30 μL of CellTiter-Glo® Luminescent Cell Viability reagent (Promega, G7573) was added to each well using the Multidrop Combi Reagent Dispenser, followed by 15 min incubation on a shaker at room temperature. Finally, luminescence was read at 0.1 ms, with a gain of 3000 using the PHERAstar FS microplate reader (BMG Labtech).

SUDHL5 cells [3] = assay: Induction of caspase-3/7 activity (Caspase-Glo 3/7), SUDHL5; format: cell-based; conditions: EC50, median, SUDHL5, 3 h treatment
Procedure, shortened: as §1

SUDHL5 cells [4] = assay: Induction of cytotoxicity (CellTiter-Glo, 5 h), SUDHL5; conditions: SUDHL5, 5 h
[5] = Homo sapiens, SU-DHL10, 5 h, read-out: Cytotox SUDHL10 [M] (median), IC50, median
[6] = read-out: Cytotox SUDHL5 [M] (median), IC50, median
[7] = Homo sapiens, SU-DHL-5, 5 h, read-out: Cytotox SUDHL5 [M] (median), IC50, median

| Compound | EC50 (SUDHL10 cells [1]; Homo sapiens, SU-DHL10, 3 h) | IC50 (AMO-1 cells; Homo sapiens, AMO1, 72 h) | IC50 (HMC-1-8 cells; 72 h) | IC50 (SUDHL10 cells [2]; [5]) | further results |
| --- | --- | --- | --- | --- | --- |
| Cc1c2c(nn1C)CN(C)CCCCn1c(C(=O)O)c(CCCOc3cccc4ccccc34)c3ccc(Cl)c-2c31 (racemic) [Example 11, (rac)-4-chloro-2,3,14-trimethyl-7-[3-(naphthalen-1-yloxy)propyl]-10,11,12,13,14,15-hexahydro-2H-pyrazolo[3′,4′:8,9][1,6]diazacycloundecino[10,11,1-hi]indole-8-carboxylic acid] | – | 7.3e-07 M | 4.2e-06 M | – | – |
| Cc1c2c(nn1C)COCC1CCC1Cn1c(C(=O)O)c(CCCOc3cccc4ccccc34)c3ccc(Cl)c-2c31 (single isomer, unassigned; enantiomer 2) [Example 79, 3-chloro-4,5-dimethyl-15-{3-[(naphthalen-1-yl)oxy]propyl}-5,7,9,9a,10,11,11a,12-octahydrocyclobuta[3,4]pyrazolo[4′,3′:9,10][1,6]oxazacycloundecino[8,7,6-hi]indole-14-carboxylic acid (Enantiomer 2)] | – | – | 8.6e-06 M | – | EC50 (SUDHL5 cells [3]; listed as 079): 580 nM; EC50 (SUDHL10 cells [1]; listed as 079): 1400 nM; IC50 (AMO-1 cells; listed as 079): 1.7e-06 M; IC50 (SUDHL5 cells [4]; read-out: Cytotox SUDHL5 [M] (median), IC50, median, listed as 079): 7.7e-07 M; IC50 (SUDHL10 cells [2]; read-out: Cytotox SUDHL10 [M] (median), IC50, median, listed as 079): 1.6e-06 M |
| CCc1c2c(nn1C)CN(CCCO)CCCCn1c(C(=O)O)c(CCCOc3cccc4cc(F)ccc34)c3ccc(Cl)c-2c31 (racemic) [Example 139, (rac)-4-chloro-3-ethyl-7-{3-[(6-fluoronaphthalen-1-yl)oxy]propyl}-14-(3-hydroxypropyl)-2-methyl-10,11,12,13,14,15-hexahydro-2H-pyrazolo[3′,4′:8,9][1,6]diazacycloundecino[10,11,1-hi]indole-8-carboxylic acid] | – | 4.4e-07 M | 5.7e-06 M | – | – |
| CCc1nn(CCN2CCOCC2)c2c1-c1c(Cl)ccc3c(CCCOc4cccc5ccccc45)c(C(=O)O)n(c13)C/C=C\CN(C)C2 (single isomer, unassigned; enantiomer 2) [Example 44, (11Z)-4-chloro-3-ethyl-14-methyl-1-[2-(morpholin-4-yl)ethyl]-7-{3-[(naphthalen-1-yl)oxy]propyl}-10,13,14,15-tetrahydro-1H-pyrazolo[3′,4′:8,9][1,6]diazacycloundecino[10,11,1-hi]indole-8-carboxylic acid-ammonia salt (Enantiomer 2)] | – | – | 2.1e-06 M | – | IC50 (AMO-1 cells): 1.1e-06 M; IC50 (SUDHL5 cells [4]; [6]): 7e-07 M |
| Cc1c2c(nn1C)COCCC(F)(F)Cn1c(C(=O)O)c(CCCOc3cccc4ccccc34)c3ccc(Cl)c-2c31 [Example 94, 4-chloro-11,11-difluoro-2,3-dimethyl-7-{3-[(naphthalen-1-yl)oxy]propyl}-2,10,11,12,13,15-hexahydropyrazolo[4′,3′:9,10][1,6]oxazacycloundecino[8,7,6-hi]indole-8-carboxylic acid N-ethylethanamine salt] | – | – | 6.3e-06 M | – | EC50 (SUDHL5 cells [3]; listed as 094): 1600 nM; EC50 (SUDHL10 cells [1]; listed as 094): 3100 nM; IC50 (SUDHL5 cells [4]; read-out: Cytotox SUDHL5 [M] (median), IC50, median, listed as 094): 2.9e-06 M; IC50 (SUDHL10 cells [2]; read-out: Cytotox SUDHL10 [M] (median), IC50, median, listed as 094): 4.5e-06 M |
| CCc1nn(C)c2c1-c1c(Cl)ccc3c(CCCOc4cccc5cc(F)ccc45)c(C(=O)O)n(c13)CCCCOC2 (single isomer, unassigned; enantiomer 1) [Example 34, (+)-4-chloro-3-ethyl-7-{3-[(6-fluoronaphthalen-1-yl)oxy]propyl}-1-methyl-1,10,11,12,13,15-hexahydropyrazolo[4′,3′:9,10][1,6]oxazacycloundecino[8,7,6-hi]indole-8-carboxylic acid (Enantiomer 1)] | 930 nM | 1.4e-06 M | 2e-06 M | – | – |
| Cc1c2c(nn1C)COCC1CCC1Cn1c(C(=O)O)c(CCCOc3cccc4ccccc34)c3ccc(Cl)c-2c31 (single isomer, unassigned) [Example 81, 3-chloro-4,5-dimethyl-15-{3-[(naphthalen-1-yl)oxy]propyl}-5,7,9,9a,10,11,11a,12-octahydrocyclobuta[3,4]pyrazolo[4′,3′:9,10][1,6]oxazacycloundecino[8,7,6-hi]indole-14-carboxylic acid] | – | – | – | – | EC50 (SUDHL5 cells [3]; listed as 081): 7400 nM; EC50 (SUDHL10 cells [1]; listed as 081): 6200 nM; IC50 (HMC-1-8 cells; listed as 081): 5.5e-06 M; IC50 (SUDHL5 cells [4]; read-out: Cytotox SUDHL5 [M] (median), IC50, median, listed as 081): 5.8e-06 M; IC50 (SUDHL10 cells [2]; read-out: Cytotox SUDHL10 [M] (median), IC50, median, listed as 081): 8.4e-06 M |
| Cc1c2c(nn1CCCN1CCN(C)CC1)COCCCCn1c(C(=O)O)c(CCCOc3cccc4ccccc34)c3ccc(Cl)c-2c31 (single isomer, unassigned; enantiomer 2) [Example 50, (−)-4-chloro-3-methyl-2-[3-(4-methylpiperazin-1-yl)propyl]-7-{3-[(naphthalen-1-yl)oxy]propyl}-2,10,11,12,13,15-hexahydropyrazolo[4′,3′:9,10][1,6]oxazacycloundecino[8,7,6-hi]indole-8-carboxylic acid (Enantiomer 2)] | – | – | 3.1e-06 M | – | EC50 (SUDHL5 cells [3]): 360 nM; IC50 (AMO-1 cells): 1.3e-06 M; IC50 (SUDHL5 cells [4]; [6]): 4.4e-07 M |
| CCc1c2c(nn1C)CN(CCOC)CCCCn1c(C(=O)O)c(CCCOc3cccc4cc(F)ccc34)c3ccc(Cl)c-2c31 (racemic) [Example 131, (rac)-4-chloro-3-ethyl-7-{3-[(6-fluoronaphthalen-1-yl)oxy]propyl}-14-(2-methoxyethyl)-2-methyl-10,11,12,13,14,15-hexahydro-2H-pyrazolo[3′,4′:8,9][1,6]diazacycloundecino[10,11,1-hi]indole-8-carboxylic acid] | 130 nM | – | 1.3e-06 M | 1.5e-07 M | – |

Further lines, with some results ahead:

| EC50 (SUDHL10 cells [1]; Homo sapiens, SU-DHL10, 3 h) | Compound | IC50 (AMO-1 cells; Homo sapiens, AMO1, 72 h) | IC50 (HMC-1-8 cells; 72 h) | IC50 (SUDHL10 cells [2]; [5]) | further results |
| --- | --- | --- | --- | --- | --- |
| 390 nM | CCc1c2c(nn1C)COCCCCn1c(C(=O)O)c(CCCOc3cccc4ccccc34)c3ccc(Cl)c-2c31 (single isomer, unassigned; enantiomer 1) [Example 20, 4-chloro-3-ethyl-2-methyl-7-[3-(naphthalen-1-yloxy)propyl]-2,10,11,12,13,15-hexahydropyrazolo[4′,3′:9,10][1,6]oxazacycloundecino[8,7,6-hi]indole-8-carboxylic acid (Enantiomer 1)] | 8.7e-07 M | 2.5e-06 M | 6.9e-07 M | – |
| 4300 nM | Cc1c2c(nn1C)COCCn1c(C(=O)O)c(CCCOc3cccc4ccccc34)c3ccc(Cl)c-2c31 (single isomer, unassigned) [Example 88, 11-chloro-9,10-dimethyl-1-{3-[(naphthalen-1-yl)oxy]propyl}-4,5,7,9-tetrahydropyrazolo[4′,3′:7,8][1,4]oxazonino[6,5,4-hi]indole-2-carboxylic acid] | 6.7e-06 M | 4.5e-06 M | 4e-06 M | EC50 (SUDHL5 cells [3]; Homo sapiens, SU-DHL-5, 3 h): 7400 nM |
| 1600 nM | Cc1nn(C)c2c1-c1c(Cl)ccc3c(CCCOc4cccc5ccccc45)c(C(=O)O)n(c13)CCCCOC2 (single isomer, unassigned; enantiomer 1) [Example 3, 4-chloro-1,3-dimethyl-7-[3-(naphthalen-1-yloxy)propyl]-1,10,11,12,13,15-hexahydropyrazolo[4′,3′:9,10][1,6]oxazacycloundecino[8,7,6-hi]indole-8-carboxylic acid (Enantiomer 1)] | 2.5e-06 M | 8.3e-06 M | 1.5e-06 M | EC50 (SUDHL5 cells [3]; Homo sapiens, SU-DHL-5, 3 h): 710 nM; IC50 (SUDHL5 cells [4]; [7]): 6.5e-07 M |
| 220 nM | Cc1c2c(nn1C)COCCC(F)(F)Cn1c(C(=O)O)c(CCCOc3cccc4cc(F)ccc34)c3ccc(Cl)c-2c31 (racemic) [Example 93, (rac)-4-Chloro-11,11-difluoro-7-{3-[(6-fluoronaphthalen-1-yl)oxy]propyl}-2,3-dimethyl-2,10,11,12,13,15-hexahydropyrazolo[4′,3′:9,10][1,6]oxazacycloundecino[8,7,6-hi]indole-8-carboxylic acid] | 1.2e-06 M | 4.9e-06 M | 4.3e-07 M | IC50 (SUDHL5 cells [4]; [7]): 3.5e-07 M |
